We go through 11 compounds from the NIST ThermoML archive (doi:10.1021/acs.jced.8b00487).

SMILES strings stand for the structures. Several values for one entry are separate records, joined by “and”; a condition that tells them apart may be missing. Equal values may be shown once. ± gives the expanded uncertainty stated by the source.

The series in a line: xn = mol fraction of the nth substance listed. The conditions noted are these: 298.15 K, 101 kPa, Liquid, Vibrating tube method.

In general, mass density refers to mass per unit of volume. Consider `CCCCC(CC)COP(=O)(O)OCC(CC)CCCC` (centres undefined) [bis(2-ethylhexyl) hydrogen phosphate] + Cc1ccccc1C, for which the mass density is, setting by setting: (x2 = 0.5002) 946.2 ± 4 kg/m3 and 946.1 ± 4 kg/m3; (x2 = 0.5198) 944.7 ± 4 kg/m3; (x2 = 0.5201) 944.6 ± 4 kg/m3; (x2 = 0.7313) 924.4 ± 4 kg/m3; (x2 = 0.8195) 912.6 ± 4 kg/m3 and 912.4 ± 4 kg/m3; (x2 = 0.8197) 912.5 ± 4 kg/m3. The mass density runs as follows: (x2 = 0.8203) 912.4 ± 4 kg/m3; (x2 = 0.8204) 912.2 ± 4 kg/m3; (x2 = 0.9275) 893.2 ± 4 kg/m3 and 892.9 ± 4 kg/m3; (x2 = 0.9406) 890.1 ± 4 kg/m3 and 890.3 ± 4 kg/m3 and 890 ± 4 kg/m3; (x2 = 0.9759) 882 ± 4 kg/m3; (x2 = 0.976) 882 ± 4 kg/m3 and 881.9 ± 4 kg/m3 and 881.8 ± 4 kg/m3.

As to `CCCCC(CC)COP(=O)([O-])OCC(CC)CCCC.CCCCC(CC)COP(=O)([O-])OCC(CC)CCCC.CCCCC(CC)COP(=O)([O-])OCC(CC)CCCC.[Tb+3]` (centres undefined) [terbium(III) bis(2-ethylhexyl) phosphate] + CCCCC(CC)COP(=O)(O)OCC(CC)CCCC, the mass density runs as follows: (x1 = 0.00621) 973.7 ± 2 kg/m3; (x1 = 0.0103) 975.8 ± 2 kg/m3; (x1 = 0.01167) 976.6 ± 2 kg/m3; (x1 = 0.01875) 980 ± 2 kg/m3; (x1 = 0.02771) 984.4 ± 2 kg/m3; (x1 = 0.04671) 993.3 ± 2 kg/m3.

Turning to `CCCCC(CC)COP(=O)([O-])OCC(CC)CCCC.CCCCC(CC)COP(=O)([O-])OCC(CC)CCCC.CCCCC(CC)COP(=O)([O-])OCC(CC)CCCC.[Nd+3]` (centres undefined) [neodymium(III) bis(2-ethylhexyl) phosphate] + CCCCC(CC)COP(=O)(O)OCC(CC)CCCC, the mass density is 976.8 ± 2 kg/m3 (x1 = 0.01187); 975.7 ± 2 kg/m3 (x1 = 0.01364); 977.3 ± 2.1 kg/m3 (x1 = 0.01427); 981.7 ± 2.5 kg/m3 (x1 = 0.02626); 983.6 ± 2.5 kg/m3 (x1 = 0.02653); 983.8 ± 2 kg/m3 (x1 = 0.02822). The mass density runs as follows: (x1 = 0.03921) 988.6 ± 2 kg/m3; (x1 = 0.0402) 987.6 ± 2 kg/m3; (x1 = 0.04214) 990.4 ± 2 kg/m3; (x1 = 0.04446) 991 ± 2 kg/m3; (x1 = 0.04708) 992.1 ± 2 kg/m3; (x1 = 0.04955) 991.6 ± 2 kg/m3. Besides, the mass density (x1 = 0.05317) is 994.9 ± 2 kg/m3; the mass density (x1 = 0.0729) stood at 1002.3 ± 2 kg/m3; the mass density (x1 = 0.07322) turned out to be 1002.5 ± 2 kg/m3; the mass density (x1 = 0.07707) came out at 1002.6 ± 2 kg/m3; the mass density (x1 = 0.0837) stood at 1006.6 ± 2 kg/m3.

With `CCCCC(CC)COP(=O)([O-])OCC(CC)CCCC.CCCCC(CC)COP(=O)([O-])OCC(CC)CCCC.CCCCC(CC)COP(=O)([O-])OCC(CC)CCCC.[Gd+3]` (centres undefined) [gadolinium(III) bis(2-ethylhexyl) phosphate] + CCCCC(CC)COP(=O)(O)OCC(CC)CCCC, the mass density is, setting by setting: (x1 = 0.01568) 978.4 ± 2 kg/m3; (x1 = 0.0349) 987.4 ± 2 kg/m3; (x1 = 0.04335) 991.2 ± 2 kg/m3; (x1 = 0.05925) 997.8 ± 2 kg/m3.

As to `CCCCC(CC)COP(=O)(O)OCC(CC)CCCC` (centres undefined) [bis(2-ethylhexyl) hydrogen phosphate] + CCCCC(CC)COP(=O)([O-])OCC(CC)CCCC.CCCCC(CC)COP(=O)([O-])OCC(CC)CCCC.CCCCC(CC)COP(=O)([O-])OCC(CC)CCCC.[Tb+3], for the setting “x2 = 0”, the mass density is 970.5 ± 2 kg/m3.

As to `CCCCC(CC)COP(=O)(O)OCC(CC)CCCC` (centres undefined) [bis(2-ethylhexyl) hydrogen phosphate] + CCCCC(CC)COP(=O)([O-])OCC(CC)CCCC.CCCCC(CC)COP(=O)([O-])OCC(CC)CCCC.CCCCC(CC)COP(=O)([O-])OCC(CC)CCCC.[Nd+3], the mass density (x2 = 0) is 971 ± 2 kg/m3 and 969.1 ± 2 kg/m3 and 970.5 ± 2 kg/m3.

Regarding `CCCCC(CC)COP(=O)([O-])OCC(CC)CCCC.CCCCC(CC)COP(=O)([O-])OCC(CC)CCCC.CCCCC(CC)COP(=O)([O-])OCC(CC)CCCC.[Dy+3]` (centres undefined) [dysprosium(III) bis(2-ethylhexyl) phosphate] + CCCCC(CC)COP(=O)(O)OCC(CC)CCCC, the mass density is reported as 973.1 ± 2 kg/m3 (x1 = 0.0039); 975.7 ± 2 kg/m3 (x1 = 0.00883); 981.6 ± 2 kg/m3 (x1 = 0.02055); 988.7 ± 2 kg/m3 (x1 = 0.03494); 995.1 ± 2 kg/m3 (x1 = 0.04879).

Take `CCCCC(CC)COP(=O)(O)OCC(CC)CCCC` (centres undefined) [bis(2-ethylhexyl) hydrogen phosphate] + CCCCC(CC)COP(=O)([O-])OCC(CC)CCCC.CCCCC(CC)COP(=O)([O-])OCC(CC)CCCC.CCCCC(CC)COP(=O)([O-])OCC(CC)CCCC.[Gd+3]: the mass density (x2 = 0) is 970.5 ± 2 kg/m3.

For `CCCCC(CC)COP(=O)([O-])OCC(CC)CCCC.CCCCC(CC)COP(=O)([O-])OCC(CC)CCCC.CCCCC(CC)COP(=O)([O-])OCC(CC)CCCC.[Eu+3]` (centres undefined) [europium(III) bis(2-ethylhexyl) phosphate] + CCCCC(CC)COP(=O)(O)OCC(CC)CCCC, the mass density reads like this: (x1 = 0.01457) 977.5 ± 2 kg/m3; (x1 = 0.03221) 985.6 ± 2 kg/m3; (x1 = 0.04158) 989.9 ± 2 kg/m3; (x1 = 0.05518) 995.6 ± 2 kg/m3; (x1 = 0.07111) 1001.7 ± 2 kg/m3.

Regarding `CCCCC(CC)COP(=O)(O)OCC(CC)CCCC` (centres undefined) [bis(2-ethylhexyl) hydrogen phosphate] + CCCCC(CC)COP(=O)([O-])OCC(CC)CCCC.CCCCC(CC)COP(=O)([O-])OCC(CC)CCCC.CCCCC(CC)COP(=O)([O-])OCC(CC)CCCC.[Dy+3], the mass density (x2 = 0) worked out at 971 ± 2 kg/m3.

Turning to `CCCCC(CC)COP(=O)(O)OCC(CC)CCCC` (centres undefined) [bis(2-ethylhexyl) hydrogen phosphate] + CCCCC(CC)COP(=O)([O-])OCC(CC)CCCC.CCCCC(CC)COP(=O)([O-])OCC(CC)CCCC.CCCCC(CC)COP(=O)([O-])OCC(CC)CCCC.[Eu+3], the mass density (x2 = 0) was 970.5 ± 2 kg/m3.
